Structures are written as SMILES. In brackets after ≈: the same amount, converted by molar mass.

Test [1] addresses DNA gyrase (Escherichia coli, UniProt P0AES4+P0AES6). Put plainly: Inhibition of Escherichia coli DNA gyrase supercoiling activity. Format: protein-complex assay.
Test [2] deals with Staphylococcus aureus. Put plainly: Antibacterial activity against wild type Staphylococcus aureus. Format: functional.
In test [3] the test system is Escherichia coli. In words: Antibacterial activity against wild type Escherichia coli. The test is classed as functional.
The target in test [4] is Topoisomerase IV (Staphylococcus aureus, UniProt P0C1S7+P0C1U9). In words: Inhibition of Staphylococcus aureus DNA topoisomerase 4 decatenation activity. The test is classed as protein-complex assay.
Chain of Topoisomerase IV (P0C1U9 whole entry): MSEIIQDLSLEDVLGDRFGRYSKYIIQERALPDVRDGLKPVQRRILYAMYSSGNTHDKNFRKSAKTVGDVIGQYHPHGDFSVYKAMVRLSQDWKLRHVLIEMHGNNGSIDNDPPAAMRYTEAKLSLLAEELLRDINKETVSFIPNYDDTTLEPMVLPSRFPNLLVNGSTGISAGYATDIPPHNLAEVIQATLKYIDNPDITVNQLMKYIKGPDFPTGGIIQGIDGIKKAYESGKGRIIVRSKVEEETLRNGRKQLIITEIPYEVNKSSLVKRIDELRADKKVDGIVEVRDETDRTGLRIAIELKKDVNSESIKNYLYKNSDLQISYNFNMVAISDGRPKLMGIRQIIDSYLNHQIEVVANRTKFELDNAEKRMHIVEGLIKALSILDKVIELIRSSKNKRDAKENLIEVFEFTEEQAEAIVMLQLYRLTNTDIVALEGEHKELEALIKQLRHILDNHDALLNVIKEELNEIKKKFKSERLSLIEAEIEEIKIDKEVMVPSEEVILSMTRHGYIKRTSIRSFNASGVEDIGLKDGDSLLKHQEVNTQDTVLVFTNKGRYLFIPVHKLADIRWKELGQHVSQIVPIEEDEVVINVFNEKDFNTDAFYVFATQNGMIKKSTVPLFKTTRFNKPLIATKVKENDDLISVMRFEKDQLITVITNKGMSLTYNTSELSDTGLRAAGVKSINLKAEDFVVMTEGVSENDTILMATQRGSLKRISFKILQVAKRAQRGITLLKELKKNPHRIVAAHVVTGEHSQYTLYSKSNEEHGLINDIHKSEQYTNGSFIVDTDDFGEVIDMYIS
Chain of Topoisomerase IV (P0C1S7 whole entry): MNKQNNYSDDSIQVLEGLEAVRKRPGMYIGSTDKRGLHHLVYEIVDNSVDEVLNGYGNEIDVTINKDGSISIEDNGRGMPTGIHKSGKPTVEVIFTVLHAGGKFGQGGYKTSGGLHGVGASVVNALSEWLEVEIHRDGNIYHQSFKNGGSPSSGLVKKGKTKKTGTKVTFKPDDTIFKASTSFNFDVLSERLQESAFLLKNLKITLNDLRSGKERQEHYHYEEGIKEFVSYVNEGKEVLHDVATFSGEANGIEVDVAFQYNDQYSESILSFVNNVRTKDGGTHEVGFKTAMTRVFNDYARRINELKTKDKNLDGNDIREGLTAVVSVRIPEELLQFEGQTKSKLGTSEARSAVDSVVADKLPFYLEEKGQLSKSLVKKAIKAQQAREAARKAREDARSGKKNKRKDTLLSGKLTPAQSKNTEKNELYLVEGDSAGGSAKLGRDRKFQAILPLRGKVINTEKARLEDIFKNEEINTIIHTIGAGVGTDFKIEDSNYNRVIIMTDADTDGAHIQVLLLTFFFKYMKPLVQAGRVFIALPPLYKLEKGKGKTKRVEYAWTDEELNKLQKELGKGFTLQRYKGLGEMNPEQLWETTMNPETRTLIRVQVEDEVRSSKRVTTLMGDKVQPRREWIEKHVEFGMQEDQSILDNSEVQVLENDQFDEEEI
Test [5] in a line: Inhibition of Escherichia coli DNA topoisomerase 4 decatenation activity.
The target of test [6] is DNA gyrase (Staphylococcus aureus, UniProt P0A0K8+P20831). In words: Inhibition of Staphylococcus aureus DNA gyrase supercoiling activity. Format: protein-complex assay.
Chain of DNA gyrase (Staphylococcus aureus, UniProt P0A0K8+P20831) (P0A0K8 whole entry): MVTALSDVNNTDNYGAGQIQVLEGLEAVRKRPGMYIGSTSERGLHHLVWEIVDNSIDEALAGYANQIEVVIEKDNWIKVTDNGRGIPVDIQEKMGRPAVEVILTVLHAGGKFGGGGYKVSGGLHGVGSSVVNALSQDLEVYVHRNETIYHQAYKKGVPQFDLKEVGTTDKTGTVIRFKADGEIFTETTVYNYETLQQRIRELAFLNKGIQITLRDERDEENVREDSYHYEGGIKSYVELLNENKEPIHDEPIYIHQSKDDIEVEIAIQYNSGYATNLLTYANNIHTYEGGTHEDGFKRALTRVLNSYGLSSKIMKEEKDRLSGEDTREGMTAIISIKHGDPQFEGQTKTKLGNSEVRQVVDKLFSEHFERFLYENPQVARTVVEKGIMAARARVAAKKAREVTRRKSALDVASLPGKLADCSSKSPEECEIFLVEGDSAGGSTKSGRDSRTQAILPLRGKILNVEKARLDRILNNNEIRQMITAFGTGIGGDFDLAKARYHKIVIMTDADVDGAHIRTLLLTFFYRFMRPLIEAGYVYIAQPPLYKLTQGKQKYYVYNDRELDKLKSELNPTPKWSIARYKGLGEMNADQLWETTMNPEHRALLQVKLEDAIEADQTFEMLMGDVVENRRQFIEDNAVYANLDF
Chain of DNA gyrase (Staphylococcus aureus, UniProt P0A0K8+P20831) (P20831 whole entry): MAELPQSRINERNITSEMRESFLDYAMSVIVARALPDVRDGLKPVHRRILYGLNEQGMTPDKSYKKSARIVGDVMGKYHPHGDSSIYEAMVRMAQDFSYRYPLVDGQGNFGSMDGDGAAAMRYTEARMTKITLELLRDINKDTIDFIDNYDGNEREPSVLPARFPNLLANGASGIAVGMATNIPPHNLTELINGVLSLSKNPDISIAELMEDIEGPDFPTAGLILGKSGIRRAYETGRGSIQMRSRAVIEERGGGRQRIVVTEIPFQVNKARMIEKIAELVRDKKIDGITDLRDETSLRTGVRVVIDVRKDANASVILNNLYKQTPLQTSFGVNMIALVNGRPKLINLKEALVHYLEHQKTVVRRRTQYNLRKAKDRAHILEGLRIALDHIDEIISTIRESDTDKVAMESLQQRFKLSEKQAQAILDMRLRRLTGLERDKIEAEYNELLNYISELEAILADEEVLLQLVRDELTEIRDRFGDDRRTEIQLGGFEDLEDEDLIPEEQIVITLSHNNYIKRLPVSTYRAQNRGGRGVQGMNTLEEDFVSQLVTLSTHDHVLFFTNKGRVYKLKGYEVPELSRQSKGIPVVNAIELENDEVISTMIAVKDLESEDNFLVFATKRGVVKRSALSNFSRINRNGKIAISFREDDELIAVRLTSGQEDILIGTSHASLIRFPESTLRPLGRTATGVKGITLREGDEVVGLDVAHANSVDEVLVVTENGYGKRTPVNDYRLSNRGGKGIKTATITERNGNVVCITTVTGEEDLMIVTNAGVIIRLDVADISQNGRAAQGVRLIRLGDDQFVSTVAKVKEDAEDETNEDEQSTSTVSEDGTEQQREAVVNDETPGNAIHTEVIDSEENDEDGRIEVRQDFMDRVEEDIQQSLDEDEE
Test [7] relates to Streptococcus pneumoniae. Put plainly: Antibacterial activity against wild type Streptococcus pneumoniae in presence of 2.5% lysed horse blood. The test is classed as functional.
The subject of test [8] is Pseudomonas aeruginosa. Put plainly: Antibacterial activity against wild type Pseudomonas aeruginosa. The test is classed as functional.
Test [9] has as its system Staphylococcus aureus. Put plainly: Antibacterial activity against wild type Staphylococcus aureus incubated for 20 hrs by two-fold serial dilution method. Format: functional.
Test [10] has as its system Staphylococcus aureus. In words: Antibacterial activity against methicillin-resistant Staphylococcus aureus incubated for 20 hrs by two-fold serial dilution method. The test is classed as functional.
In test [11] the test system is Enterococcus faecium. In words: Antibacterial activity against vancomycin-resistant Enterococcus faecium incubated for 20 hrs by two-fold serial dilution method. The test is classed as functional.
The test system of test [12] is Moraxella catarrhalis. In words: Antibacterial activity against wild type Moraxella catarrhalis incubated for 20 hrs by two-fold serial dilution method. The test is classed as functional.
Test [13] relates to Haemophilus influenzae. In words: Antibacterial activity against wild type Haemophilus influenzae incubated for 20 hrs by two-fold serial dilution method. Format: functional.
Test [14] relates to Escherichia coli. Put plainly: Antibacterial activity against wild type Escherichia coli incubated for 20 hrs by two-fold serial dilution method. The test is classed as functional.
The test system of test [15] is Pseudomonas aeruginosa. Put plainly: Antibacterial activity against wild type Pseudomonas aeruginosa incubated for 20 hrs by two-fold serial dilution method. Format: functional.
The test system of test [16] is Acinetobacter baumannii. Put plainly: Antibacterial activity against wild type Acinetobacter baumannii incubated for 20 hrs by two-fold serial dilution method. Format: functional.
The nature of test [17]: Inhibition of Escherichia coli DNA topoisomerase 4 ATPase activity.
The subject of test [18] is Staphylococcus aureus. In words: Antibacterial activity against wild type Staphylococcus aureus incubated for 20 hrs in presence of 50% of human serum by two-fold serial dilution method. The test is classed as functional.
In test [19] the test system is Streptococcus pneumoniae. Put plainly: Antibacterial activity against wild type Streptococcus pneumoniae incubated for 20 hrs in presence of 2.5% lysed horse blood by two-fold serial dilution method. The test is classed as functional.
For test [20], the system named is Enterococcus faecalis. Put plainly: Antibacterial activity against wild type Enterococcus faecalis incubated for 20 hrs by two-fold serial dilution method. The test is classed as functional.

As usually defined, the IC50 is the point on the concentration scale where inhibition reaches its midpoint. A lower IC50 goes with greater potency. In the case of `Cc1c(O)cc(O)c2c1C(=O)OC[C@H](NC(=O)[C@@H]1[C@H](O)CCN1C(=O)[C@@H](N)CO)C(=O)N[C@H](C(=O)N[C@@H](C)C(=O)O)CSC2`, the IC50 in [1] turned out to be 0.05 µM. The MIC in [2] and in [3] was above 128 µg/mL in each case.

On to `CO[C@@H]1[C@@H](OC(=O)c2ccc(C)[nH]2)[C@@H](O)[C@H](Oc2ccc3c(O)c(NC(=O)c4c[nH]c(C(=O)Nc5c(O)c6ccc(O[C@@H]7OC(C)(C)[C@H](OC)[C@@H](OC(=O)c8ccc(C)[nH]8)[C@H]7O)c(C)c6oc5=O)c4C)c(=O)oc3c2C)OC1(C)C`, for which the half-maximal inhibitory concentration (IC50) came out at 100 µM in test [4], 5 µM in test [5], 0.006 µM in test [6] and 0.03 µM in test [1]. In addition, the MIC stood at 0.0012 µg/mL (≈ 0.00108 µM) in test [2], 0.78 µg/mL in test [7], 6.25 µg/mL (≈ 5.63 µM) in test [3] and 12.5 µg/mL (≈ 11.3 µM) in [8].

For `CO[C@@H]1[C@@H](OC(=O)c2ccc(C)[nH]2)[C@@H](O)[C@H](Oc2ccc3c(O)c(NC(=O)c4ccc(O)c(CC=C(C)C)c4)c(=O)oc3c2Cl)OC1(C)C` [CHLOROBIOCIN], the figures for the IC50 in [4] and in test [5] were 10 µM and 3 µM, respectively. Moreover, the MIC in [2] is below 0.06 µg/mL; in test [7] it was 2 µg/mL.

For `C[C@H]1COc2c(N3CCN(C)CC3)c(F)cc3c(=O)c(C(=O)O)cn1c23.C[C@H]1COc2c(N3CCN(C)CC3)c(F)cc3c(=O)c(C(=O)O)cn1c23.O` [LEVOFLOXACIN], the MIC was 0.125 µg/mL in test [9]; 32 µg/mL in [10]; 4 µg/mL in test [11]; 1 µg/mL in test [12]; below 0.015 µg/mL in test [13]; 0.031 µg/mL in test [14]. Besides, the MIC in [15] was 0.5 µg/mL; in [16] it was 0.125 µg/mL.

Turning to `CO[C@@H]1[C@@H](OC(N)=O)[C@@H](O)[C@H](Oc2ccc3c(O)c(NC(=O)c4ccc(O)c(CC=C(C)C)c4)c(=O)oc3c2C)OC1(C)C` [NOVOBIOCIN], the IC50 was found to be 35 µM in test [4], 10 µM in test [5] and 0.45 µM in [17]. In addition, the MIC in test [9] was 0.25 µg/mL (≈ 0.408 µM); in test [18] it was 16 µg/mL; in test [10] it was 0.06 µg/mL (≈ 0.0979 µM); in test [19], 1 µg/mL; in test [20] it was 32 µg/mL (≈ 52.2 µM); in [12], above 32 µg/mL. The figures for the MIC in test [13], in test [14] and in test [15] were 0.12 µg/mL (≈ 0.196 µM), above 32 µg/mL and 100 µg/mL (≈ 163 µM), respectively.

The values are drawn from ChEMBL document CHEMBL5252521, “Discovery and development of kibdelomycin, a new class of broad-spectrum antibiotics targeting the clinically proven bacterial type II topoisomerase” (Bioorg Med Chem, 2016).
